The source of these data is patent US5229413A, “Compositions containing indole-2-carboxylate compounds for treatment of CNS disorders” (G. D. Searle & Co., priority 1992, dated 1993).

In assay [1] the target is T1, NMDA receptor (rat brain receptor expressed in Xenopus oocytes) (Rattus norvegicus, UniProt P35439).
T1 construct: PolyA+ RNA (mRNA) was extracted from adult male rat cortex; expressed in transfected cells; host or cells: Xenopus laevis oocytes microinjected with rat cortex poly(A)+ RNA
As to the kind of experiment: Xenopus oocytes injected with rat cortex mRNA, blocking of glycine effects (voltage clamp). The assay is classed as cell-based. The note with it: 100 μM NMDA. How it is done: PolyA+ RNA (mRNA) was extracted from adult male rat cortex using the refined guanidinium thiocyanate method developed by Han et al [J. H. Han et al., Biochemistry, 26, 1617-1625 (1987)] and the oligo (dT) cellulose chromatography procedure of Adiv and Leder [H. Aviv et al., Proc. Nat. Acad. Sci., 69, 1408-1412 (1972)]. Aliquots of mRNA (1.0 mg/ml water) were stored at -20° C.
Gravid adult female Xenopus laevis (Xenopus One, Ann Arbor, Mich. or NASCO, Ft. Atkinson, Wis.) were anaesthetized with 0.2% (w/v) Tricaine (3-amino benzoic acid ethyl ester; Sigma) and subjected to partial ovarectomy. Excised oocytes were then prepared and microinjected [N. W. Kleckner et al, Science 241 835-837 (1988)]. Oocytes were treated for one hour in Barth's solution (88.0 mM NaCl, 1.0 mM KCl, 2.4 mM NaHCO3, 0.41 mM CaCl2, 0.82 mM MgSO4, 10.0 μg/ml penicillin, 100.0 μg/ml streptomycin, 10.0 mM HEPES, pH 7.5) containing 1.5 mg/ml Neutral Protease (Beohringer Mannheim Biochemicals, Grade II). Oocytes were then placed in Barth's solution containing 100.0 mM sucrose and manually defolliculated with fine forceps. Defolliculated oocytes were then microinjected with approximately 50 ng of mRNA in Barth's solution at 16°-18° C.
Oocytes were assayed 2-8 days later for rat brain receptor expression via single electrode voltage. clamp (Axoclamp 2A, Axon Instruments) in a manner similar to that previously described [Kleckner et al, Id.]. […] Drugs were added to the perfusate and inward currents induced by agonist compounds were measured at peak steady state response. […] Antagonist compounds were perfused for a minimum of 3.0 minutes prior to subsequent agonist co-application. Data are expressed as percent maximal response (mean±S.E.M.). Half-maximal responses (EC50 's) and slopes for dose response data were determined from the least squares fit to the logistic regression equation.

The target of assay [2] is T2, strychnineinsensitive glycine recognition site (NMDA receptor-ion channel complex) (Rattus norvegicus, UniProt P35439).
T2 construct: Synaptic plasma membranes (SPM) were prepared from rat forebrain; from tissue; host or cells: rat forebrain synaptic plasma membranes
As to the kind of experiment: Glycine binding assay, [3H]glycine, synaptic plasma membranes. The note with it: 10 nM [3H]glycine, pH 7.4, rat forebrain SPM; read-out: Ki apparent, Gly. How it is done:
Synaptic plasma membranes (SPM) were prepared from rat forebrain and stored as previously described [J. B. Monahan and J. Michel, J. Neurochem, 48, 1699-1708 (1987)]. Frozen membranes were thawed and diluted 1:20 with 0.04% triton X-100 in 50 mM tris/acetate (pH 7.4). Following incubation at 37° C. for 30 min., the SPM were collected by centrifugation at 95,000 X g for 15 min. The pellet was resuspended in 50 mM tris/acetate (pH 7.4, triton-free) and hand-homogenized five times. The membranes were again centrifuged as above. The pellet was washed two additional times with 50 mM tris/acetate (without homogenization) and centrifuged. The final pellet was resuspended with homogenization in 50 mM tris/acetate.
In the general receptor binding assay procedure, 10 nM [^3 H]glycine was added to the appropriate concentration of the test compounds and the assay initiated by the addition of 0.2-0.4 mg of ice cold SPM. The assay, which was done in 1.5 ml centrifuge tubes, was adjusted to a total volume of 1.0 ml with all additions being made in 50 mM tris/ acetate, pH 7.4 at 4° C. After a 10 minute incubation at 2° C., the samples were centrifuged for 15 min. at 12,000 g (4° C.) in a Beckman Microfuge 12. The supernatant was aspirated and the tube tip containing the pelleted membranes cut off and agitated in 0.5 ml of Beckman BTS-450 tissue solubilizer for a minimum of 6 hours at room temperature. Beckman MP scintillation cocktail (5 ml) containing 7 ml/liter acetic acid was then added and the samples counted on a Beckman LS 5800 liquid scintillation counter with automatic corrections for quenching and counting efficiency. […] The binding of [^3 H]glycine to the SPM was analyzed using Scatchard and Hill transformations and the Ki for other compounds was determined using logit-log analysis. Calculations and regression analysis were performed using templates developed for Lotus 123 as previously described [Pullan et al, Id.].

One may read the IC50 as the concentration needed to halve the response being measured. Low values mean inhibition by little substance, high ones a need for much substance.

As to `O=C(O)Cc1c(C(=O)O)[nH]c2cc(Cl)ccc12` [Compound No. 6, 2-carboxy-6-chloro-3-indoleacetic acid], the IC50 in assay [1] (IC50, 0.1 μM Gly, 0.1 μM glycine) is 0.77 ± 0.12 µM; in assay [1] (IC50, 1.0 μM Gly, 1.0 μM glycine) it was 3.2 ± 1.1 µM; in assay [1] (IC50, 10 μM Gly, 10 μM glycine), 6.1 ± 3.2 µM. Besides, the Ki in assay [2] is 1.3 µM.
